Measurements: patent US10933145B2, “Compositions and methods for reducing the risk of radiocontrast-induced nephropathy” (UNIVERSITY OF PITTSBURGH—OF THE COMMONWEALTH SYSTEM OF …, priority 2016, dated 2021)

Assays:
[1] = system: NFκB activity in MDCK cells; assay: NFκB activity in MDCK cells exposed to radiocontrast, with or without calcineurin inhibitor; assay type: cell-based, Canine; settings: MDCK cells treated with 16% radiocontrast; FIG. 4A
Description: FIG. 4A-B. NFκB activity in MDCK cells exposed to increasing amounts of radiocontrast and treated with (A) FK506 (gray bar) or DMSO (as negative control, black bar) or (B) Cyclosporin A.
NFκB activity in MDCK cells exposed to increasing amounts of radiocontrast and treated with either FK506 (FIG. 4A) or cyclosporin A (FIG. 4B).

[2] = system: NFAT activity in MDCK cells; assay: NFAT-luciferase reporter activity in MDCK cells; assay type: cell-based, Canine; settings: 16 percent radiocontrast, 3 hours, MDCK cells infected with Ad-NFAT-luciferase; FIG. 2
Procedure: FIG. 2. NFAT (Nuclear Factor of Activated T-cells) activity in MDCK cells measured via NFAT-luciferase expression at increasing concentrations of radiocontrast. MDCK were engineered to contain a reporter for inflammatory NFAT activity. In particular, MDCK cells were infected with Ad-NFAT-luciferase and treated for 3 hours with […] (0-16%) of iohexol radiocontrast. NFAT activity in MDCK cells was measured via NFAT-luciferase expression.

With `CC(=O)N(CC(O)CO)c1c(I)c(C(=O)NCC(O)CO)c(I)c(C(=O)NCC(O)CO)c1I` (centres unmarked) [iohexol radiocontrast, iohexol] the “increase in NFκB activation” value [1] was “approximately 5 fold” and the “NFAT activation relative to control” value [2] was 40 fold.
